Measured values: ChEMBL document CHEMBL1153339, “Design, synthesis, and anti-HCV activity of thiourea compounds” (Bioorg Med Chem Lett, 2009)

Experiments:
[1] = tested on: Hepatitis C virus; assay: Antiviral activity against HCV 1b infected in human Ava5 cells expressing EG(delta-4AB)SEAP fusion protein by subgenomic replicon assay; type: functional, organism-based, Hepacivirus hominis; settings: genotype 1b
[2] = Cytotoxicity against human Ava5 cells; type: cell-based
[3] = Selectivity index, ratio of CC50 for human Ava5 cells to EC50 for HCV 1b

EC50 [1] [nM]	SMILES	CC50 [2] [nM]	Ratio CC50/EC50 [3]
2990	NC(=S)Nc1cccc(OCCCCCOc2ccncc2)c1	> 50000	>17
594	CCN(CC)c1ccc(OCCCCCOc2cccc(NC(N)=S)c2)cc1	> 50000	>84
143	NC(=S)Nc1cccc(NCCCCCc2ccccc2)c1	> 50000	>350
1010	NC(=S)Nc1ccccc1OCCCCCc1ccccc1	31000	31
708	CCCNC(=S)Nc1cccc(OCCCCCc2ccccc2)c1	32000	45
494	NC(=S)Nc1cccc(Oc2ccccc2)c1	> 50000	>101
> 50000	NC(=S)Nc1cccc(OCCCCCOc2ccc(C(=O)O)cc2)c1	> 50000	>1
136	NC(=S)Nc1cccc(OCCCCCOc2ccc(-c3ccco3)cc2)c1	11000	81
47	NC(=S)Nc1cccc(OCCCCCCc2ccccc2)c1	28000	596
7240	S=C(NCc1ccccc1)Nc1cccc(OCCCCCc2ccccc2)c1	32000	4
159	NC(=S)Nc1cccc(OCCCCc2ccccc2)c1	> 50000	>314
191	NC(=S)Nc1cccc(OCCCCCOc2ccc(-c3ccccc3)cc2)c1	> 50000	>262
177	NC(=S)Nc1cccc(OCCCCCOc2cccc(Nc3ccccc3)c2)c1	11000	62
1130	NC(=S)Nc1cccc(OCCCCCOc2cccnc2)c1	> 50000	>44
31500	S=C(Nc1ccccc1)Nc1cccc(OCCCCCc2ccccc2)c1	35000	1
214	NC(=S)Nc1cccc(OCCCCCOc2cccc(-c3ccccc3)c2)c1	13000	61
58	NC(=S)Nc1cccc(OCCCCCOc2cccc(Cc3ccccc3)c2)c1	13000	224
72	NC(=S)Nc1cccc(OCCCCCOc2ccc(F)cc2)c1	5000	69
685	CCNC(=S)Nc1cccc(OCCCCCc2ccccc2)c1	> 50000	>73
822	CNC(=S)Nc1cccc(OCCCCCc2ccccc2)c1	> 50000	>61
104	CC(CCOc1ccccc1)CCOc1cccc(NC(N)=S)c1 (stereo unspecified)	> 50000	>481
13400	S=C(NCCc1ccccc1)Nc1cccc(OCCCCCc2ccccc2)c1	33000	2
121	NC(=S)Nc1cccc(OCCCCCOc2ccc(-c3cccs3)cc2)c1	> 50000	>413
407	NC(=S)Nc1cccc(OCCCCCOc2ccc(N3CCCCC3)cc2)c1	12000	29

EC50 [1] [nM]	SMILES	CC50 [2] [nM]	Ratio CC50/EC50 [3]
485	NC(=S)Nc1cccc(OCCCCCOc2ccc(N3CCOCC3)cc2)c1	> 50000	>103
105	CC(C)(CCOc1ccccc1)CCOc1cccc(NC(N)=S)c1	13000	124
411	NC(=S)Nc1cccc(OCCCCCOc2ccnc3ccccc23)c1	24000	58
335	NC(=S)Nc1cccc(OCCc2ccccc2)c1	> 50000	>149
72	NC(=S)Nc1cccc(OCCCCCOc2ccc(Br)cc2)c1	19000	264
481	NC(=S)Nc1cccc(OCCCCCOc2cccc3cnccc23)c1	26000	54
59	NC(=S)Nc1cccc(OCCCCCOc2ccccc2)c1	> 50000	>847
58	NC(=S)Nc1cccc(OCCCCCOc2cccc3ccccc23)c1	14000	241
218	NC(=S)Nc1cccc(OCCCCCOc2cccc(C(=O)c3ccccc3)c2)c1	13000	60
255	NC(=S)Nc1cccc(OCCCCCOc2ccc(-n3cccc3)cc2)c1	> 50000	>196
913	NC(=S)Nc1cccc(OCCCCCOc2ccc(N3CCCC3)cc2)c1	16000	18
97	NC(=S)Nc1cccc(OCCCCCOc2ccccc2-c2ccccc2)c1	13000	134
72	NC(=S)Nc1cccc(OCCCCCOc2ccc(Cl)cc2)c1	7000	97
231	NC(=S)Nc1cccc(OCCCc2ccccc2)c1	> 50000	>216
48	NC(=S)Nc1cccc(OCCCCCc2ccccc2)c1	22000	458
561	NC(=S)Nc1cccc(OCc2ccccc2)c1	> 50000	>89
218	COc1ccc(OCCCCCOc2cccc(NC(N)=S)c2)cc1	> 50000	>229
250	NC(=S)Nc1cccc(OCCCCCOc2cccc3ncccc23)c1	15000	60
279	NC(=S)Nc1cccc(OCCCCCOc2ccccn2)c1	> 50000	>179
107	NC(=S)Nc1cccc(OCCCCCOc2cccc(Oc3ccccc3)c2)c1	18000	168
97	NC(=S)Nc1cccc(OCCCCCCCc2ccccc2)c1	23000	237
355	NC(=S)Nc1cccc(OCCCCCOc2cccc3[nH]ccc23)c1	> 50000	>141
197	NC(=S)Nc1ccc(OCCCCCc2ccccc2)cc1	10000	51
